Results taken from article PMC8401265, “Evolutionary Diversification of Host-Targeted Bartonella Effectors Proteins Derived from a Conserved FicTA Toxin-Antitoxin Module” (Microorganisms, 2021).

Target: T1, Btr_BepC FIC (Bartonella tribocorum, UniProt A9IWP7)
T1 construct: gene bepC
Test: X-ray crystallography
Type: binding
Conditions: active site; pH 6.5 crystals; lysine K150 contacts alpha-phosphate

T1 sequence (A9IWP7 entry or part of it): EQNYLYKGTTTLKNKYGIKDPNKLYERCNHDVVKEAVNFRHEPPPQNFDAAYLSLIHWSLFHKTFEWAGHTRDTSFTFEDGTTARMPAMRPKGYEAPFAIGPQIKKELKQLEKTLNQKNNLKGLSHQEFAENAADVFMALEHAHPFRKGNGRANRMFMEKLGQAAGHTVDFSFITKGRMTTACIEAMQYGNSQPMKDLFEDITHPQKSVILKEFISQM

In the case of `Nc1ncnc2c1ncn2[C@@H]1O[C@H](COP(=O)(O)OP(=O)(O)NP(=O)(O)O)[C@@H](O)[C@H]1O` [AMPPNP], the X-ray crystallography is reported as “the complex of Btr_BepC with AMPPNP (Figure 9A) demonstrates competent tri-phosphate nucleotide binding”.
